Results on 8 compounds are retold here after patent publication US20090181932A1, “COMPOSITIONS CONTAINING O-SULFATE AND O-PHOSPHATE CONTAINING ARYL SULFONAMIDE DERIVATIVES USEFUL AS beta-AMYLOID INHIBITORS” (Wyeth, priority 2008, published 2009).

Common to all, as to assay type: cell-based
Assay [1] relates to Aβ40 generation from APP in CHO cells stably expressing hAPP-REPNL751. Kind of assay: Aβ-lowering electrochemiluminescent (MSD ECL) assay of conditioned media, Aβ40. As to the method: (§1) The activity of compounds in lowering the generation of Aβ40 and Aβ42, the most abundant forms of beta amyloid, from APP (amyloid precursor protein) was measured in an electrochemiluminescent (ECL) assay of conditioned media from chinese hamster ovary (CHO) cells stably expressing the human amyloid precursor protein (APP) reporter construct, hAPP-REPNL751 [Sughir, R. et al.; J. Biolog. Chem. (1992) 267: 25602-25608]. Aβ peptides were secreted at high levels into cell culture media by cells carrying the human APP transgene; compounds were tested for their capacity to modulate this production. The Aβ peptide in the conditioned medium was quantitated by a sandwich immunoassay with the Meso Scale Discovery® (MSD®) ECL detection system. Cell metabolism was measured using MTS salt kit (containing a tetrazolium compound 3-(4,5-dimethylthiazol-2-yl)-5-(3-carboxymethoxyphenyl)-2-(4-sulfophenyl)-2H-tetrazolium, inner salt; MTS(a) which measures the mitochondrial activity of cells by the bioreduction of Owen's reagent). This assay consists of the following protocol: • 1. Aβ-Lowering Assay. • a. hAPP-REPNL751 CHO cells were seeded into 96 well plates and incubated until about 60-70% confluence. • b. Medium was removed, cells were washed, and fresh serum-free medium (Ultraculture) was put on cells. • c. Compounds were diluted and then added to the cell medium. • d. Cells were incubated, with compounds, for indicated times. • e. Streptavidin coated Meso Scale Discover (MSD) plates (MSD standard Multi-Array™ 96 plate, cat. #P11SA-1) were washed 3× with TTBS (Tris-buffered saline, the Tween® 20 reagent). • f. 20 μL conditioned medium were removed from the cells, and added to the TTBS prewashed MSD® plates. • g. Standard curve dilutions of synthetic Aβ40 and Aβ42 were prepared and added to the MSD® plates. • h. A reagent mix was prepared in 1% MSD® Blocker A (appropriate concentration of biotinylated 6E10 antibody, detection antibodies to Aβ40, Aβ42, and MSD ruthinylated tag antibody). • i. 20 μL reagent mix was distributed to sample plate. • j. Plates were incubated with shaking overnight at 4° C. • k. Plates were washed 3× with TTBS. • l. 150 μL read buffer was added per well (MSD Read Buffer T, cat#R92TC-2, made 1× with distilled water). • m. Plates were read in MSD plate reader within 2 hours. • 2. MTS Assay: • a. Cells were seeded into 96 well plates and incubated until about 60-70% confluence. • b. Medium was removed, cells were washed, and fresh serum-free medium (Ultraculture) was put on cells. • c. Compounds were diluted and then added to the cell medium. • d. Cells were incubated, with compounds, for indicated times. • e. Using a robot, conditioned medium was removed from the cells, and transferred to a TTBS prewashed MSD plate. • f. Cells were washed 2× in phosphate buffered saline (PBS) and an MTS solution was plated onto the cells. After 1 hour, they were read on a plate reader at 560 nm to determine metabolic activity. • 3. Analysis of Results. • Assays were accepted or rejected based upon specific performance criteria, including regression coefficient of standard curve, adequate signal to noise ratio, sample signals lying within the range of the standard curve, etc. The specific parameters were established for each tissue type prior to performing an assay, and were included in the full analytical procedure. • Plate data from both assays (MTS and MSD ELISA) were transferred into a Microsoft Excel® spreadsheet to determine the toxicity, and inhibition caused by the compounds. Standard curves of Aβ were generated using LSW toolbar Hill slope model 42, with 1/y weighting (general sigmoidal curve with Hill slope, a to d; y=(a−d)/(1+(x/c)̂b)+d). […]

Assay [2] deals with Aβ42 generation from APP in CHO cells stably expressing hAPP-REPNL751. Kind of assay: Aβ-lowering electrochemiluminescent (MSD ECL) assay of conditioned media, Aβ42. Here is the method: as §1
The test system of assay [3] is S3 (γ-secretase like) processing of Notch (Mouse Notch1 with deleted extracellular domain). The assay can be described thus: Whole cell functional Notch assay (HES1-SEAP reporter, P8H6 CHO-K1 cells). Conditions: Notch assay reference compounds, read-out: EC50 (Notch induced SEAP levels). An excerpt:
The activity of compounds in cleaving Notch can be measured in a whole cell functional Notch assay. This is an assay to determine the effects of compounds on the S3 (γ-secretase like) processing of Notch. […] SEAP transactivation is then detected by luminescent assay. The assay consists of the following protocol: • 1. Materials and Methods: • (a) Materials: The P8H6 inducible stable cell line was derived from T-REx™ CHO-K1, stably expressing Tet repressor, Notch (pZX1) and HES1-SEAP (pZX2) reporter constructs. A Wallace 1450® Victor Luminescence Counter is used to measure luminescent signal. […] For vehicle samples, the same volume of 0.2% DMSO/25 mM HEPES buffer was added. • Cells were incubated at 37° C., 5% CO2 for 48 hours. • SEAP levels in the conditioned media were assessed using the Clontech GreatEscAPe™ SEAP Chemiluminescence detection kit according to the manufacturer's instruction. […] After cooling, assay buffer was added, and the sample was incubated with the CSPD® substrate. • Luminescence was measured in a Wallace 1450 Victor luminescence counter. • 2. […] EC50 was calculated by […] using sigmoidal inhibition from B0 to nsb model (model 59). […] Inhibition of Notch processing was measured using the stable transfection reporter assay. […]

Where [4] appears, read: electrochemiluminescent assay, hAPP-REPNL751 CHO cells, read-out: C40: EC50 for inhibition of Aβ40.
The mark [5] stands for this setting: electrochemiluminescent assay, hAPP-REPNL751 CHO cells, read-out: C42: EC50 for inhibition of Aβ42.
Setting [6] is: CHO, reference standards of the beta amyloid assay, read-out: EC50αβ42.

Structures can show the parent of a compound that is named as a salt. Where two headings read alike, the source gives them in different places.

For the compound `O=S(=O)(O)OC[C@@H](NS(=O)(=O)c1ccc(Cl)s1)C(C(F)(F)F)C(F)(F)F` [Example 1, (2S)-2-{[(5-chloro-2-thienyl)sulfonyl]amino}-4,4,4-trifluoro-3-(trifluoromethyl)butyl Hydrogen Sulfate, Sodium Salt], the EC50 in assay [1] (setting [4]) turned out to be 447 nM; in assay [2] (setting [5]), 445 nM.

For `CC[C@H](CC(F)(F)F)[C@@H](CO)NS(=O)(=O)c1ccc(Cl)s1` [5-chloro-N-[(1S,2R)-2-ethyl-4,4,4-trifluoro-1-(hydroxymethyl)butyl]thiophene-2-sulfonamide, reference compound], the EC50 in assay [1] (CHO, reference standards of the beta amyloid assay, read-out: EC50αβ40) came out at 6 nM; in assay [2] (setting [6]) it was 5 nM.

In the case of `CC[C@@H](C)[C@@H](COS(=O)(=O)O)NS(=O)(=O)c1ccc(Cl)s1` [Example 2, (2S,3R)-2-{[(5-chloro-2-thienyl)sulfonyl]amino}-3-methylpentyl Hydrogen Sulfate, Sodium Salt], the EC50 in assay [1] (setting [4]) and in assay [2] (setting [5]) was 15000 nM in each case.

Turning to `CC[C@H](C)[C@@H](COS(=O)(=O)O)NS(=O)(=O)c1ccc(Cl)cc1` [Example 4, (2S,3S)-2-{[(4-chlorophenyl)sulfonyl]amino}-3-methylpentyl Hydrogen Sulfate, Sodium Salt], the EC50 in assay [1] (setting [4]) and in assay [2] (setting [5]) was 15000 nM throughout.

With `CC(C)[C@H](O)C(=O)N[C@@H](C)C(=O)N[C@@H]1C(=O)N(C)CCc2ccccc21` [(2S)-2-hydroxy-3-methyl-N-((1S)-1-methyl-2-{[(1S)-3-methyl-2-oxo-2,3,4,5-tetrahydro-1H-3-benzazepin-1-yl]amino}-2-oxoethyl)butanamide, reference compound], the EC50 in assay [3] came to 68 nM; in assay [2] (setting [6]), 79 nM.

On to `O=S(=O)(O)OC[C@@H](NS(=O)(=O)c1ccc(Cl)cc1)C(C(F)(F)F)C(F)(F)F` [Example 5], for which the EC50 in assay [1] (CHO, read-out: C40: EC50 for inhibition of Aβ40) was found to be 4030 nM; in assay [2] (CHO, read-out: C42: EC50 for inhibition of Aβ42) it was 4150 nM.

On to `CCC(CC)[C@@H](COS(=O)(=O)O)NS(=O)(=O)c1ccc(Cl)s1` [Example 3, (2S)-2-{[(5-chloro-2-thienyl)sulfonyl]amino}-3-ethylpentyl Hydrogen Sulfate, Sodium Salt], for which the values for the EC50 in assay [1] (setting [4]) and in assay [2] (setting [5]) were 243 nM and 234 nM, respectively.

For the compound `O=S(=O)(O)OC[C@@H](NS(=O)(=O)c1ccc(Cl)s1)[C@@H](c1cc(F)cc(F)c1)C(F)(F)F` [Example 6, (2S,3R)-2-{[(5-chloro-2-thienyl)sulfonyl]amino}-3-(3,5-difluorophenyl)-4,4,4-trifluorobutyl Hydrogen Sulfate, Sodium Salt], the EC50 was determined as 1740 nM in assay [1] (setting [4]) and 1290 nM in assay [2] (setting [5]).
